System: MCF-7
Test: AlamarBlue cell viability assay, MCF7
Type: cell-based, human
Conditions: Homo sapiens, MCF7, MCF-7, AlamarBlue cell viability (Table 8)
From the text: (A) Inhibitory concentration 50% (IC50) values for compound 43 in the MC cell lines are tabulated, using an AlamarBlue™ cell viability assay as previously described in Pandey V et al., Breast Cancer Res. 2014; 16(5):429. (B) Measured dose-dependent manner effect of compound 43 on the viability of MC cells (left-side, TFF3-high and right, TFF3-low) using AlamarBlue™ viability assay as previously described (ibid). (C) Apoptotic cell death of mammary carcinoma cell lines measured after treatment with 10 μM compound 43 using flow cytometry analysis at 24 hour as described previously in Keerthy H K et al., PloS one. 2014; 9(9):e107118. Annexin V-FITC staining is indicated on the X-axis and PI staining on the Y-axis. […] Acquisition of Annexin V and PI data were represented as percentage (%) in each quadrant. Note: CM, conditioned media; MCF10A and MCF12A, non-transformed immortalized-mammary epithelial cell line. Points are mean of triplicate experiments; bars, ±SD. Statistical significance was assessed by using an unpaired two-tailed Student's t test (P<0.05 was considered as significant) using GraphPad Prism5. Columns are mean of triplicate experiments; bars, ±SD. **P<0.001, *P<0.05.
The human immortalized mammary epithelial cell lines, MCF10A, and MCF12A; and immortalized hepatocellular epithelial cell line, LO2 were obtained from the American Type Culture Collection (ATCC, Rockville, Md.) and were cultured as per ATCC propagation instructions. MC cell lines, MCF7, T47D, BT474, BT20, MDA-MB-361, MDA-MB-436, MDA-MB-468, and MDA-MB-231; endometrial carcinoma cell lines, Ishikawa, ECC1, RL95-2 and AN3; hepatocellular carcinoma cell lines, Hep3B, H2P, and H2M; colon carcinoma cell lines, DLD-1, and Caco-2; and prostate carcinoma cell lines, PC3, LNCaP, and DU145 were obtained from the American Type Culture Collection (ATCC, Rockville, Md.). Pancreatic carcinoma cell lines, AsPC-1 and BxPC-3; Lung carcinoma cell lines, HCC-827, NCI-H1975, HCC-4006, PC-14, and NCI-H1299; and Thyroid carcinoma cell lines HTH83, CAL62, T238, and OGK-M were obtained from Prof. H. Phillip Koeffler's laboratory at The Cancer Science Institute of Singapore, National University of Singapore (NUS). Gastric carcinoma cell lines, AGS, MKN-28, MKN-45, and A2-528 were obtained from Prof. Yoshiaki Ito's laboratory at The Cancer Science Institute of Singapore, NUS. All cell lines were cultured as per ATCC propagation instructions.
The above synthesised compounds were initially evaluated against a range of carcinoma cells using an AlamarBlue™ cell viability assay (using the protocol discussed above). The tested compounds were generally efficacious at reducing the viability of various carcinoma cells compared to vehicle (DMSO) treated cells. Table 8 provides selected IC50 data for certain of the compounds synthesised herein against MCF-7.
In table 9 IC50 values of compound 43 compound library in several cancer cell lines are tabulated, using an AlamarBlue® cell viability assay as previously described in Pandey V et al., Breast Cancer Res. 2014; 16(5):429. Statistical analysis was assessed by using GraphPad Prism5. Note: NV, no value.

Structure (SMILES) | IC50
COc1cccc(-c2cc(C3C(C#N)=C(N)Oc4c3c(=O)oc3ccccc43)ccc2OC)c1 (stereo not drawn) [Compound 61] | 8.94 µM
Cc1cc(-c2ccc(C3C(C#N)=C(NS(=O)(=O)c4ccccc4)Oc4c3c(=O)oc3ccccc43)cc2)cnc1F (stereo not drawn) [Compound 107] | 19.5 µM
Cc1ccc(-c2ccc(C3C(C#N)=C(N)Oc4c3c(=O)oc3ccc(F)cc43)cc2)cn1 (stereo not drawn) [Compound 152] | 77.6 µM
N#CC1=C(N)Oc2c(c(=O)oc3ccc(F)cc23)C1c1ccc(-c2cncnc2)cc1 (stereo not drawn) [Compound 160] | 253 µM
COc1ccc2c3c(c(=O)oc2c1)C(c1ccc(-c2ccncc2)cc1)C(C#N)=C(N)O3 (stereo not drawn) [Compound 146] | 7.04 µM
N#CC1=C(N)Oc2c(c(=O)oc3ccccc23)C1c1ccc(-c2cccc3ccccc23)cc1F (stereo not drawn) [Compound 141] | 1.7 µM
COc1ccc(C2C(C#N)=C(NC(=O)c3ccc(C(F)(F)F)cc3)Oc3c2c(=O)oc2ccccc32)cc1-c1cnc(F)c(C)c1 (stereo not drawn) [Compound 102] | 33 µM
Cc1cc(-c2ccc(C3C(C#N)=C(NC(=O)c4cccn4C)Oc4c3c(=O)oc3ccccc43)cc2)cnc1F (stereo not drawn) [Compound 101] | 40.4 µM
COc1ccc2c3c(c(=O)oc2c1)C(c1ccc(-c2ccccc2C)cc1)C(C#N)=C(N)O3 (stereo not drawn) [Compound 163] | 22.8 µM
N#CC1=C(N)Oc2c(c(=O)oc3ccc(F)cc23)C1c1ccc(-c2cccnc2)cc1F (stereo not drawn) [Compound 166] | 53.8 µM
N#CC1=C(N)Oc2c(c(=O)oc3ccccc23)C1c1ccc(-c2ccncc2)cc1F (stereo not drawn) [Compound 131] | 2.89 µM
CC(=O)c1ccc(-c2ccc(C3C(C#N)=C(N)Oc4c3c(=O)oc3ccc(F)cc43)cc2)s1 (stereo not drawn) [Compound 158] | 95.2 µM
COc1ccc(C2C(C#N)=C(NC(=O)c3cccn3C)Oc3c2c(=O)oc2ccccc32)cc1-c1cnc(F)c(C)c1 (stereo not drawn) [Compound 106] | 55 µM
N#CC1=C(N)Oc2c(c(=O)oc3ccccc23)C1c1ccc(-c2ccccc2)cc1 (stereo not drawn) [Compound 1] | 22.6 µM
COc1ccc(C2C(C#N)=C(N)Oc3c2c(=O)oc2ccccc32)cc1-c1ccccc1 (stereo not drawn) [Compound 49] | 28.2 µM
Cc1cc(-c2ccc(C3C(C#N)=C(N)Oc4c3c(=O)oc3ccc(F)cc43)cc2)cnc1Cl (stereo not drawn) [Compound 147] | 0.526 µM
COc1ccc(C2C(C#N)=C(N)Oc3c2c(=O)oc2ccccc32)cc1-c1cccnc1 (stereo not drawn) [Compound 79] | 9.15 µM
Cc1cc(-c2ccc(C3C(C#N)=C(N)Oc4c3c(=O)oc3ccc(F)cc43)c(F)c2)cnc1Cl (stereo not drawn) [Compound 170] | 27.3 µM
N#CC1=C(N)Oc2c(c(=O)oc3ccccc23)C1c1ccc(-c2cccnc2)cc1 (stereo not drawn) [Compound 31] | 5.21 µM

Structure (SMILES) | IC50
Cc1c(-c2ccc(C3C(C#N)=C(N)Oc4c3c(=O)oc3ccccc43)c(F)c2)ccnc1F (stereo not drawn) [Compound 130] | 7.93 µM
COc1ccc2c3c(c(=O)oc2c1)C(c1ccc(-c2ccc(C)nc2)cc1)C(C#N)=C(N)O3 (stereo not drawn) [Compound 153] | 4.9 µM
Cc1cc(-c2ccc(C3C(C#N)=C(NC(=O)c4cc(Cl)ccc4Cl)Oc4c3c(=O)oc3ccccc43)cc2)cnc1F (stereo not drawn) [Compound 100] | 177 µM
COc1ccc(CC(=O)NC2=C(C#N)C(c3ccc(-c4cnc(F)c(C)c4)cc3)c3c(c4ccccc4oc3=O)O2)cc1OC (stereo not drawn) [Compound 99] | 33.4 µM
COc1ccc2c3c(c(=O)oc2c1)C(c1ccc(-c2cnc(Cl)c(C)c2)cc1)C(C#N)=C(N)O3 (stereo not drawn) [Compound 148] | 7.38 µM
N#CC1=C(N)Oc2c(c(=O)oc3ccc(F)cc23)C1c1ccc(-c2cccc3ccccc23)cc1 (stereo not drawn) [Compound 156] | 24.8 µM
COc1ccc2c3c(c(=O)oc2c1)C(c1ccc(-c2ccc(C(F)(F)F)cc2)cc1)C(C#N)=C(N)O3 (stereo not drawn) [Compound 151] | 2.45 µM
N#CC1=C(N)Oc2c(c(=O)oc3ccccc23)C1c1ccc(-c2ccncc2)cc1 (stereo not drawn) [Compound 121] | 15.8 µM
COc1cccc(-c2ccc(C3C(C#N)=C(N)Oc4c3c(=O)oc3ccccc43)c(F)c2)c1 (stereo not drawn) [Compound 140] | 1.07 µM
COc1ccc(C2C(C#N)=C(N)Oc3c2c(=O)oc2ccccc32)cc1-c1ccc(Cl)c(C(F)(F)F)c1 (stereo not drawn) [Compound 73] | 14.8 µM
COc1ccc(C2C(C#N)=C(N)Oc3c2c(=O)oc2ccccc32)cc1-c1cnc(F)c(C)c1 (stereo not drawn) [Compound 91] | 11.8 µM
Cc1cc(-c2ccc(C3C(c4nnn[nH]4)=C(N)Oc4c3c(=O)oc3ccccc43)cc2)cnc1F (stereo not drawn) [Compound 113] | 33.1 µM
Cc1ccc(-c2ccc(C3C(C#N)=C(N)Oc4c3c(=O)oc3ccccc43)cc2)cn1 (stereo not drawn) [Compound 124] | 43.8 µM
Cc1ccc(-c2ccc(C3C(C#N)=C(N)Oc4c3c(=O)oc3ccccc43)c(F)c2)cn1 (stereo not drawn) [Compound 135] | 3.26 µM
COc1ccc(C2C(C#N)=C(NS(=O)(=O)c3ccccc3)Oc3c2c(=O)oc2ccccc32)cc1-c1cnc(F)c(C)c1 (stereo not drawn) [Compound 110] | 67.4 µM
N#CC1=C(N)Oc2c(c(=O)oc3ccccc23)C1c1ccc(-c2cncnc2)cc1 (stereo not drawn) [Compound 128] | 200 µM
N#CC1=C(N)Oc2c(c(=O)oc3ccccc23)C1c1ccc(-c2ccc(Cl)cc2)cc1F (stereo not drawn) [Compound 137] | 3.95 µM
COc1ccc(S(=O)(=O)NC2=C(C#N)C(c3ccc(OC)c(-c4cnc(F)c(C)c4)c3)c3c(c4ccccc4oc3=O)O2)cc1 (stereo not drawn) [Compound 111] | 39.3 µM
N#CC1=C(N)Oc2c(c(=O)oc3ccccc23)C1c1ccc(-c2ccc(C(F)(F)F)cc2)cc1 (stereo not drawn) [Compound 123] | 2.54 µM

Structure (SMILES) | IC50
COc1ccc(C2C(C#N)=C(N)Oc3c2c(=O)oc2ccccc32)cc1-c1ccccc1C (stereo not drawn) [Compound 55] | 18.6 µM
Cc1c(-c2ccc(C3C(C#N)=C(N)Oc4c3c(=O)oc3ccc(F)cc43)cc2)ccnc1F (stereo not drawn) [Compound 149] | 43.3 µM
COc1cccc(-c2ccc(C3C(C#N)=C(N)Oc4c3c(=O)oc3ccccc43)cc2)c1 (stereo not drawn) [Compound 13] | 17.8 µM
N#CC1=C(N)Oc2c(c(=O)oc3ccccc23)C1c1ccc(-c2ccc(C=O)o2)cc1F (stereo not drawn) [Compound 136] | 1.67 µM
N#CC1=C(N)Oc2c(c(=O)oc3ccc(F)cc23)C1c1ccc(-c2cccnc2)cc1 (stereo not drawn) [Compound 144] | 6.85 µM
N#CC1=C(N)Oc2c(c(=O)oc3ccccc23)C1c1ccc(-c2cccnc2)cc1F (stereo not drawn) [Compound 133] | 3.26 µM
COc1ccc2c3c(c(=O)oc2c1)C(c1ccc(-c2cccnc2)cc1)C(C#N)=C(N)O3 (stereo not drawn) [Compound 143] | 0.685 µM
N#CC1=C(N)Oc2c(c(=O)oc3ccc(F)cc23)C1c1ccc(-c2ccc(Cl)cc2)cc1 (stereo not drawn) [Compound 155] | 36.1 µM
Cc1cc(-c2ccc(C3C(C#N)=C(NS(=O)(=O)c4ccc([N+](=O)[O-])cc4)Oc4c3c(=O)oc3ccccc43)cc2)cnc1F (stereo not drawn) [Compound 109] | 34.9 µM
COc1cccc(-c2ccc(C3C(C#N)=C(N)Oc4c3c(=O)oc3ccc(F)cc43)cc2)c1 (stereo not drawn) [Compound 164] | 27.3 µM
COc1ccc(C2C(C#N)=C(NS(=O)(=O)c3ccc([N+](=O)[O-])cc3)Oc3c2c(=O)oc2ccccc32)cc1-c1cnc(F)c(C)c1 (stereo not drawn) [Compound 112] | 101 µM
Cc1ccccc1-c1ccc(C2C(C#N)=C(N)Oc3c2c(=O)oc2ccc(F)cc32)cc1 (stereo not drawn) [Compound 162] | 164 µM
N#CC1=C(N)Oc2c(c(=O)oc3ccccc23)C1c1ccc(-c2ccc(Cl)cc2)cc1 (stereo not drawn) [Compound 127] | 3.25 µM
N#CC1=C(N)Oc2c(c(=O)oc3ccccc23)C1c1ccc(-c2ccc(C(F)(F)F)cc2)cc1F (stereo not drawn) [Compound 134] | 1.84 µM
COc1ccc2c3c(c(=O)oc2c1)C(c1ccc(-c2ccc(Cl)cc2)cc1)C(C#N)=C(N)O3 (stereo not drawn) [Compound 154] | 5.74 µM
N#CC1=C(N)Oc2c(c(=O)oc3ccccc23)C1c1ccc(-c2cn[nH]c2)cc1F (stereo not drawn) [Compound 142] | 15.5 µM
COc1ccc(CC(=O)NC2=C(C#N)C(c3ccc(OC)c(-c4cnc(F)c(C)c4)c3)c3c(c4ccccc4oc3=O)O2)cc1OC (stereo not drawn) [Compound 104] | 8.96 µM
N#CC1=C(N)Oc2c(c(=O)oc3ccc(F)cc23)C1c1ccc(-c2cncnc2)cc1F (stereo not drawn) [Compound 168] | 251 µM
COc1ccc(C2C(C#N)=C(NC(=O)c3cc(Cl)ccc3Cl)Oc3c2c(=O)oc2ccccc32)cc1-c1cnc(F)c(C)c1 (stereo not drawn) [Compound 105] | 23.7 µM

From US20200147039A1, “COMPOUNDS USEFUL IN INHIBITING HUMAN TREFOIL FACTOR 3” (NATIONAL UNIVERSITY OF SINGAPORE, priority 2017, published 2020)
